BindingDB's records for doi:10.7270/Q2H70D5W (University of Pittsburgh, 2007)

The compounds below were run against Gag-Pol polyprotein (Human immunodeficiency virus type 1 group M subtype B (isolate HXB2), UniProt P04585) (assay: HIV-1 RT RNase H inhibitor potency, dose response, biochemical, probe assessment (AID 652)). Settings: pH 8; 23 °C.

Compared with `N#Cc1c(NC(=O)CN2CCN(S(=O)(=O)c3ccc4c(c3)OCCO4)CC2)sc2c1CCC2` [MLS000053165], `Cc1ccc(NC(=O)CSc2nnc(-c3ccc(S(=O)(=O)N4CCCC4)cc3)o2)cc1C` [MLS000071775] is 3.5-fold higher in IC50: 3.48 µM for the first, 12.3 µM for the second.

Compared with `COc1ccc(Cn2nnnc2C(c2cccnc2)N2CCN(c3ccc(O)cc3)CC2)cc1` (configuration not stated) [4-(4-{[1-(4-Methoxy-benzyl)-1H-tetrazol-5-yl]-pyridin-3-yl-methyl}-piperazin-1-yl)-phenol], `COc1ccc(CC(=O)Nc2ccc(-c3noc(-c4cccc(OC)c4)n3)cc2)cc1` [2-(4-methoxyphenyl)-N-[4-[5-(3-methoxyphenyl)-1,2,4-oxadiazol-3-yl]phenyl]acetamide] is lower in IC50: > 50 µM for the first, 3.07 µM for the second.

First: c1ccc(-c2ccc(-c3ccccn3)nn2)nc1 [3,6-bis(2-pyridinyl)pyridazine]
Second: Clc1ccccc1-c1nn2c(-c3ccncc3)nnc2s1 [6-(2-chlorophenyl)-3-(4-pyridinyl)[1,2,4]triazolo[3,4-b][1,3,4]thiadiazole]
The IC50 of the first is 5.7-fold higher: 15.4 µM for the first, 2.7 µM for the second.

Compared with `CCOC(=O)c1c(C2COc3ccccc3O2)csc1NC(=O)c1ccco1` (configuration not stated) [4-(2,3-dihydro-1,4-benzodioxin-3-yl)-2-(2-furoylamino)thiophene-3-carboxylic acid ethyl ester], `COC(=O)c1ccccc1NC(=O)c1ccc2c(c1)C(=O)N(Cc1ccco1)C2=O` [2-[[2-(2-furfuryl)-1,3-diketo-isoindoline-5-carbonyl]amino]benzoic acid methyl ester] is 11-fold higher in IC50: 0.654 µM for the first, 7.36 µM for the second. The first is the more potent here.

First: CC1(C)Cc2[nH]c(=S)c(C#N)cc2CO1 [7,7-dimethyl-2-sulfanylidene-5,8-dihydro-1H-pyrano[4,3-b]pyridine-3-carbonitrile]
Second: COc1ccc(Br)cc1C1CC(=O)N2CN(C)CSC2=C1C#N (configuration not stated) [8-(5-bromanyl-2-methoxy-phenyl)-3-methyl-6-oxidanylidene-2,4,7,8-tetrahydropyrido[2,1-b][1,3,5]thiadiazine-9-carbonitrile]
The IC50 of the first is 1.8-fold lower: 4.03 µM for the first, 7.18 µM for the second. The first is the more potent here.

Going from `Cc1nc(C)c(C(=O)Nc2nc3c(C)cccc3s2)o1` [2,4-dimethyl-N-(4-methyl-1,3-benzothiazol-2-yl)-1,3-oxazole-5-carboxamide] to `Cc1sc(NC(=O)c2oc3ccccc3c2C)c(C#N)c1C` [MLS000065828], the IC50 rises from 1.49 µM to 10.8 µM (7.2-fold). The first is the more potent here.

Compared with `O=c1cc(CN2CCN(c3ccccc3)CC2)c2cc(O)c(-c3ccccc3)cc2o1` [6-hydroxy-7-phenyl-4-[(4-phenyl-1-piperazinyl)methyl]-1-benzopyran-2-one], `Cc1cc(-c2nn3c(-c4ccccc4)nnc3s2)c2ccccc2n1` [2-methyl-4-(3-phenyl[1,2,4]triazolo[3,4-b][1,3,4]thiadiazol-6-yl)quinoline] is 1.9-fold lower in IC50: 5.01 µM for the first, 2.6 µM for the second.

First: Cc1noc(C)c1CSc1nc2cc(S(=O)(=O)N3CCOCC3)ccc2o1 [2-[(3,5-dimethyl-1,2-oxazol-4-yl)methylsulfanyl]-5-morpholin-4-ylsulfonyl-1,3-benzoxazole]
Second: Cc1cc(NC(=O)CSc2ccc(-c3nc4cc(C)c(C)cc4[nH]3)cn2)no1 [2-[5-(5,6-Dimethyl-1H-benzoimidazol-2-yl)-pyridin-2-ylsulfanyl]-N-(5-methyl-isoxazol-3-yl)-acetamide]
The IC50 of the first is 7.3-fold lower: 2.3 µM for the first, 16.7 µM for the second.

Going from `Cn1ccnc1P(=S)(c1nccn1C)N1CCOCC1` [MLS000054793] to `Nc1c(C(=O)N2CCOCC2)sc(=S)n1-c1ccccc1` [(4-amino-3-phenyl-2-sulfanylidene-1,3-thiazol-5-yl)-morpholin-4-ylmethanone], the IC50 falls from 11.8 µM to 4.97 µM (2.4-fold).

Going from `CC(C)(C)c1ccc(-c2nnc3sc(-c4ccncc4)nn23)cc1` [3-(4-tert-butylphenyl)-6-(4-pyridinyl)[1,2,4]triazolo[3,4-b][1,3,4]thiadiazole] to `CC(C)OC(=O)CSc1nnc(-c2ccc(C(C)(C)C)cc2)n1N` [2-[[4-amino-5-(4-tert-butylphenyl)-1,2,4-triazol-3-yl]thio]acetic acid isopropyl ester], the IC50 rises from 6.18 µM to > 50 µM.

Compared with `CC(C)c1ccc2oc(-c3ccc(NC(=O)c4nnc[nH]4)cc3)nc2c1`, `CCOc1ccc(S(=O)(=O)Nc2cc(Sc3nnc[nH]3)c3oc(=O)sc3c2)cc1` [4-ethoxy-N-[2-oxo-7-(1H-1,2,4-triazol-5-ylsulfanyl)-1,3-benzoxathiol-5-yl]benzenesulfonamide] is 2.2-fold lower in IC50: 5.64 µM for the first, 2.53 µM for the second. The second is the more potent here.

Going from `O=C(CSc1nnnn1-c1ccccc1)Nc1nsc(-c2ccc(Cl)cc2)n1` [MLS000085595] to `O=C(CSc1nc2ccccc2c2nc3ccccc3n12)NCc1ccco1` [2-(6-benzimidazolo[1,2-c]quinazolinylthio)-N-(2-furanylmethyl)acetamide], the IC50 falls from 15.7 µM to 8.73 µM (1.8-fold).

Compared with `CCc1ccccc1N1CSC2=C(C#N)C(c3cc(OC)c(OC)cc3OC)CC(=O)N2C1` (configuration not stated) [3-(2-ethylphenyl)-6-oxidanylidene-8-(2,4,5-trimethoxyphenyl)-2,4,7,8-tetrahydropyrido[2,1-b][1,3,5]thiadiazine-9-carbonitrile], `COc1ccc(N2CSC3=C(C#N)C(c4ccc(OC)c(OC)c4)CC(=O)N3C2)c(OC)c1` (configuration not stated) [3-(2,4-dimethoxyphenyl)-8-(3,4-dimethoxyphenyl)-6-oxidanylidene-2,4,7,8-tetrahydropyrido[2,1-b][1,3,5]thiadiazine-9-carbonitrile] is 6.1-fold higher in IC50: 2.91 µM for the first, 17.8 µM for the second.

First: O=C(c1ccccc1F)N1CCN(S(=O)(=O)c2ccc(S(=O)(=O)N3CCCCC3)cc2)CC1 [(2-Fluoro-phenyl)-{4-[4-(piperidine-1-sulfonyl)-benzenesulfonyl]-piperazin-1-yl}-methanone]
Second: O=C(c1ccc2c3c(cccc13)C(=O)N(O)C2=O)N1CCCCC1 [2-hydroxy-6-(piperidine-1-carbonyl)benzo[de]isoquinoline-1,3-dione]
The IC50 of the first is 11-fold higher: 44 µM for the first, 4.19 µM for the second.

First: N#CC1C(=N)SC(=N)C(C#N)C1c1ccnc2ccccc12 (configuration not stated) [2,6-bis(azanyl)-4-quinolin-4-yl-4H-thiopyran-3,5-dicarbonitrile]
Second: O=c1c2ccccc2[se]n1-c1ccccc1 [2-Phenyl-benzo[d]isoselenazol-3-one]
The IC50 of the first is lower: 13.7 µM for the first, > 50 µM for the second.

Going from `CCOC(=O)C1=C(C)N=c2s/c(=C3/C(=O)Nc4ccccc43)c(=O)n2C1c1ccc2c(c1)OCO2` (configuration not stated) [SMR000072283] to `c1ccc2c(c1)nnn2Cc1nnc2sc(-c3ccc4c(c3)OCCO4)nn12` [1-{[6-(2,3-dihydro-1,4-benzodioxin-6-yl)[1,2,4]triazolo[3,4-b][1,3,4]thiadiazol-3-yl]methyl}-1H-1,2,3-benzotriazole], the IC50 rises from 1.07 µM to 1.69 µM (1.6-fold). The first is the more potent here.

Going from `Cc1cccc(-c2nsc(SCC(=O)Nc3nccs3)n2)c1` [2-[[3-(3-methylphenyl)-1,2,4-thiadiazol-5-yl]sulfanyl]-N-(1,3-thiazol-2-yl)acetamide] to `CCOC(=O)Cc1csc(-n2sc3ccccc3c2=O)n1` [MLS000082162], the IC50 falls from 3.81 µM to 0.598 µM (6.4-fold). The second is the more potent here.

First: O=C(CCCn1c(SCC(=O)c2ccc(O)c(O)c2)nc2ccccc2c1=O)NCC1CCCO1 (configuration not stated) [4-[2-[2-(3,4-dihydroxyphenyl)-2-oxoethyl]sulfanyl-4-oxoquinazolin-3-yl]-N-(oxolan-2-ylmethyl)butanamide]
Second: COC(=O)c1ccc2c(=O)n(Cc3ccco3)c(SCC(=O)Nc3ccccc3Cl)nc2c1 [2-[[2-(2-chloroanilino)-2-keto-ethyl]thio]-3-(2-furfuryl)-4-keto-quinazoline-7-carboxylic acid methyl ester]
The IC50 of the first is 5.3-fold lower: 0.879 µM for the first, 4.65 µM for the second.

First: COc1ccc(S(=O)(=O)Nc2ccc(O)c3ccccc23)cc1 [4-methoxy-N-(4-oxidanylnaphthalen-1-yl)benzenesulfonamide]
Second: COc1ccc(OC)c(S(=O)(=O)Nc2ccc(O)c(Sc3nc[nH]n3)c2)c1 [N-[4-hydroxy-3-(1H-1,2,4-triazol-3-ylthio)phenyl]-2,5-dimethoxybenzenesulfonamide]
The IC50 of the first is 1.7-fold higher: 4.07 µM for the first, 2.46 µM for the second.

First: CN1CCN(C(=O)c2sc(=S)n(-c3ccccc3)c2N)CC1 [(4-amino-3-phenyl-2-sulfanylidene-1,3-thiazol-5-yl)-(4-methylpiperazin-1-yl)methanone]
Second: O=C(CSc1nnc[nH]1)c1ccccc1
The IC50 of the first is 2.4-fold lower: 2.29 µM for the first, 5.52 µM for the second.

First: C=CCn1c(=O)c(C(=O)Nc2nnc(C)s2)c(O)c2ccccc21 [1-allyl-2-hydroxy-4-keto-N-(5-methyl-1,3,4-thiadiazol-2-yl)quinoline-3-carboxamide]
Second: CCCCCn1c(=O)c(C(=O)NCc2ccncc2)c(O)c2ccccc21 [1-amyl-2-hydroxy-4-keto-N-(4-pyridylmethyl)quinoline-3-carboxamide]
The IC50 of the first is 2.3-fold higher: 16.8 µM for the first, 7.42 µM for the second.

Going from `COc1ccccc1CNC(=O)c1cc2c(=O)n(C)c3ccccc3c2n1C` [4-keto-1,5-dimethyl-N-o-anisyl-pyrrolo[3,2-c]quinoline-2-carboxamide] to `O=C(NCCc1ccccc1)c1c(O)n2c3c(cccc3c1=O)CC2` [6-Hydroxy-4-oxo-1,2-dihydro-4H-pyrrolo[3,2,1-ij]quinoline-5-carboxylic acid phenethyl-amide], the IC50 falls from 24.7 µM to 9.94 µM (2.5-fold).

Going from `CC(C)c1ccc(C2CC(=O)N3CN(C)CSC3=C2C#N)cc1` (configuration not stated) [MLS000117258] to `CCOc1ccccc1N1CSC2=C(C#N)C(c3c(OC)ccc4ccccc34)CC(=O)N2C1` (configuration not stated) [3-(2-ethoxyphenyl)-8-(2-methoxy-1-naphthalenyl)-6-oxo-2,4,7,8-tetrahydropyrido[2,1-b][1,3,5]thiadiazine-9-carbonitrile], the IC50 falls from 10.7 µM to 2.18 µM (4.9-fold). The second is the more potent here.

First: Cc1cc(C)c2c(=O)n(CC(=O)N3CCC(N4CCCCC4)CC3)sc2n1 [2-[2-keto-2-(4-piperidinopiperidino)ethyl]-4,6-dimethyl-isothiazolo[5,4-b]pyridin-3-one]
Second: C=CCSc1nc2c(c(=O)[nH]c(=O)n2C)n1C(C)C [3-methyl-7-propan-2-yl-8-prop-2-enylsulfanylpurine-2,6-dione]
The IC50 of the first is lower: 38.4 µM for the first, > 50 µM for the second.

`c1ccc(-c2ccc(C3=Nc4ncnn4C(c4ccco4)C3)cc2)cc1` (configuration not stated) and `Cc1ccc(-c2cc(C(F)F)n3ncc(C(=O)NCc4ccco4)c3n2)cc1` [7-(difluoromethyl)-N-(2-furanylmethyl)-5-(4-methylphenyl)-3-pyrazolo[1,5-a]pyrimidinecarboxamide] are within 1.5-fold of each other in IC50: 14.5 µM for the first, 15.3 µM for the second.

Going from `COCCn1c(-c2ccc(-c3ccccc3Cl)o2)nc2c1c(=O)[nH]c(=O)n2CC(C)C` to `O=C(Nc1ccc(N2CCOCC2)cc1)c1ccc2nc(-c3ccco3)c(-c3ccco3)nc2c1` [2,3-bis(2-furanyl)-N-[4-(4-morpholinyl)phenyl]-6-quinoxalinecarboxamide], the IC50 rises from 4.55 µM to 22.6 µM (5-fold).
